Data set [1] is described as follows: Fluorescence quantum yield determination. Format: physicochemical. To be noted: DMSO; reference rhodamine B in ethanol or quinine sulfate in 0.5 M H2SO4. As to the method:
(§1) The ^1H NMR spectroscopic measurements were carried out using a Bruker-600 NMR at 600 MHz with tetramethysilane (TMS) as internal reference. Electrospray ionization (ESI) mass spectra were performed on a Bruker MicroToF ESI LC-MS System in positive-ion mode. The steady-state absorption spectra were obtained with a ThermoFisher Evolution 220 UV-Vis spectrophotometer in 1 cm path length quartz cells. Fluorescence spectra were recorded using spectrophotometer (SPEX FluoroLog-3). Quantum yield in DMSO was measured relative to the fluorescence of Rhodamine B (Φ=0.65) in ethanol or quinine sulfate (Φ=0.55) in 0.5 M·L^−1 H2SO4. FT-IR spectrum was taken on a PerkinElmer Spectrum 100 FT-IR Spectrometers. Confocal fluorescent images of living cells were performed using Nikon A1R-si Laser Scanning Confocal Microscope (Japan), equipped with lasers of 405/488/561/638 nm. STORM images were performed on a NSTORM (Nikon, Japan), featuring a CFI Apo TIRF 100× oil objective (NA 1.49) on an inverted Nikon Ti Eclipse microscope with a quad cube filter (Chroma, zt405/488/561/640 m-TRF), piezo stage, and Perfect Focus System (Nikon) for Z-stability. Light source are hand-held UV lamp, BlueView Transilluminator (470 nm centred, Vernier), Prior Lumen200 with 615/30 filter and 850 LED (Mouser Electronics).
Quantum yields were measured with Rhodamine B as reference (Φ=0.65) or quinine sulfate (Φ=0.55) in 0.5 M H2SO4. Fluorescence measurements were performed in 1 cm quartz cells with 5 μM samples in DMSO on spectrophotometer (SPEX FluoroLog-3) (slits 5×5). The fluorescence quantum yield, Φ (sample), were calculated according to equation as following:
[formula] Φ: quantum yield; I: integrated emission intensity; OD: optical density at the excitation wavelength; d: refractive index of solvents, dDMSO=1.478; dethanol=1.36; dwater=1.33.

The nature of data set [2]: Photoactivation (turn-on) of thio-caged fluorophores in solution by light irradiation. Format: physicochemical. To be noted: DMSO; footnote d: 615 nm, 0.4 μW cm^−2. The source says: To determine whether a minimal one atom sulfur-for-oxygen substitution within fluorophores can lead to fluorescence quenching, thio-caged Nile Red (SNile Red, FIG. 1) was synthesized, in which a carbonyl group was replaced with a thiocarbonyl moiety. Treatment of Nile Red with Lawesson's reagent in refluxing benzene produced the desired SNile Red in a yield of 40%. […] Irradiation of SNile Red with red light (615 nm, 0.4 μW cm-2) led to the regeneration of fluorescent Nile Red in a high yield (FIG. 2A). The absorption maxima of SNile Red at 298, 368 and 652 nm were blue-shifted after desulfuration to 315 and 556 nm, in a good agreement with the absorption spectrum of authentic synthesized Nile Red (FIG. 2B). The A556/A652 value, representing the ratio of the absorbance maxima of Nile Red and SNile Red, increased from 0.25 to 30 after desulfuration reaction (FIG. 2B). Upon irradiation with red light, the fluorescence intensity of the desulfurated material at 626 nm increased 280-fold, accompanied by a change in fluorescence from dark to red (FIG. 2C). To evaluate the proper light source for SNile Red photoactivation, SNile Red was irradiated with either 470 nm, 615 nm, or 850 nm light for different times and fluorescence intensities at 626 nm were recorded. […] To further characterize the photoactivated product of SNile Red, ^1H NMR and ESI-MS spectral changes were measured in the process of photoactivation (FIG. 2A). […] Signals corresponding to phenyl moiety protons at 8.64, 8.62, 7.85, 7.73, 7.36, 7.04, and 6.79 ppm gradually disappeared, and were replaced by new signals appearing at 8.57, 8.13, 7.81, 7.72, 7.63, 6.85, 6.69 and 6.30 ppm, respectively. […] The photoactivated product was also characterized by ESI-mass spectrometric analysis FIG. 3). The observed m/z 319.2 corresponding to Nile Red confirms the photoactivation product of SNile Red is its oxo form. Both dialkylthioketones and diarylthioketones are known to undergo photo-oxidation reaction under oxygen and light to give the corresponding ketones (Coyle, 1985, Corsaro and Pistara, 1998). To investigate the effects of dissolved oxygen and light on the photoactivation of thio-caged fluorophores, the time profile of the fluorescence of SNile Red was measured in the presence or absence of light, or oxygen. […] To study the effect of oxygen during the photoactivation, the inventors prepared an oxygen-free SNile Red solution by bubbling nitrogen gas and irradiated at 615 nm. […] Inspired by the photoactivation mechanism of thioketones, it was hypothesized that singlet oxygen generated by self-sensitization can be the active species to oxidize thiocarbonyl groups within fluorophores (Coyle, 1985 and Corsaro and Pistara, 1998). […] The singlet oxygen quantum yield (DA) was further determined to be 0.36 with considering the absorption correction factor over the 600-630 nm region (Bonacin et al., 2009 and Adarsh et al., 2010) by referring to methylene blue (MB) (ΦΔ,MB=0.57 in dichloromethane; Li et al., 2013).
Encouraged by the excellent photoactivation properties of SNile Red, Lawesson's reagent was employed to introduce thiocarbonyl moieties into several different fluorophores, such as phthalimide (PI), coumarin (Cou) and acridone (ACD), obtaining yields ranging from 20-80% (FIG. 1). Next, characterization of the spectroscopic and photochemical properties of these thiocaged fluorophores and their oxidized products using UV-vis and fluorescence spectroscopies was performed (Table 1). […] Double thiocarbonyl substitution on 4-dimethylaminophthalimide (4-DMAP, FIG. 1) produced an even larger bathochromic shift of 166 nm. […] It was hypothesized that the red-shift and enhanced absorption seen with thiocarbonyl compounds were due to the reduced energy gap between the HOMO-LUMO in these fluorophores. This is consistent with the computational results discussed below. […]

Data set [3] can be described thus: UV-vis absorption and fluorescence spectra of thio-caged and uncaged fluorophores. Format: physicochemical. To be noted: for λem / λabs: DMSO (50 μM); for λabs: absorption maxima. As to the method:
Encouraged by the excellent photoactivation properties of SNile Red, Lawesson's reagent was employed to introduce thiocarbonyl moieties into several different fluorophores, such as phthalimide (PI), coumarin (Cou) and acridone (ACD), obtaining yields ranging from 20-80% (FIG. 1). Next, characterization of the spectroscopic and photochemical properties of these thiocaged fluorophores and their oxidized products using UV-vis and fluorescence spectroscopies was performed (Table 1). […] Double thiocarbonyl substitution on 4-dimethylaminophthalimide (4-DMAP, FIG. 1) produced an even larger bathochromic shift of 166 nm. […] It was hypothesized that the red-shift and enhanced absorption seen with thiocarbonyl compounds were due to the reduced energy gap between the HOMO-LUMO in these fluorophores. This is consistent with the computational results discussed below. […] To assess the efficiency of photoactivation for the various thio-caged fluorophores, UV-vis and fluorescence spectra were recorded after different irradiation times (FIGS. 4-8).
as §1

The conditions of data set [4]: cited from earlier work.
For data set [5] the following is noted: in dichloromethane; cited from earlier work.
Data set [6] concerns H2B-Halo expressed CHO-K1 cells. Kind of data set: Turn-on of 5NP-Halo in cells. Format: cell-based. To be noted: 10 μM for 1 h. The source says: FIGS. 19A & 19B show turn-on of 5NP-Halo in H2B-Halo expressed CHO-K1 cells.

The values that follow come from US11913884B2, “Visible light-activated dyes and methods of use thereof” (William Marsh Rice University, priority 2019, dated 2024).

Values joined by “and” are separate entries in the source; they are usually repeats but may differ in a detail not shown here. Equal values may be shown once. Where a name gives a salt, the structure may show the parent alone. Read-outs that look alike come from different tables or passages of the source.

With `S=C1NC(=S)c2ccccc21` [Dye 2SPI], the “ø (fluorescence quantum yield)” value in data set [1] is recorded as less than 0.001. Besides, the “Turn-on (x-fold)” value in data set [2] is on record as 30^d x-fold. In addition, the λem in data set [3] is 294 nm.
Take `CCN(CC)c1ccc2nc3c4ccccc4c(=O)cc-3oc2c1` [Nile Red]: the “ø (fluorescence quantum yield)” value in data set [1] is listed as 0.46. In addition, the λem in data set [3] is on record as 626 nm.
For `CN(C)c1ccc2c(c1)C(=O)NC2=O` [DMAP, 4-dimethylaminophthalimide], the “ø (fluorescence quantum yield)” value in data set [1] amounted to 0.09. In data set [3], the λem is reported as 505 nm; the λabs is 267 nm and 325 nm and 397 nm. Moreover, the “bathochromic shift of absorption maximum” value in data set [3] (double thiocarbonyl substitution versus carbonyl compound) came out at 166 nm.
As for `S=c1c2ccccc2[nH]c2ccccc12` [SACD], the “ø (fluorescence quantum yield)” value in data set [1] is on record as less than 0.001. Moreover, the “Turn-on (x-fold)” value in data set [2] was 180^d x-fold. Further, in data set [3], the λem was 409 nm and 427 nm and 463 nm; the λabs was 430 nm and 456 nm.
On to `CCN(CC)c1ccc2c(-c3ccccc3C(=O)O)c3ccc(=[N+](CC)CC)cc-3oc2c1.[Cl-]` [Rhodamine B], for which the “fluorescence quantum yield Φ of reference” value in data set [4] (in ethanol) is recorded as 0.65.
For the compound `CN(C)c1ccc2nc3ccc(=[N+](C)C)cc-3sc2c1` [methylene blue], in data set [5], the “singlet oxygen quantum yield (ΦΔ,MB) of reference” value is 0.57.
As for `CN(C)c1ccc2c(c1)C(=S)NC2=S` [SDMAP], the “ø (fluorescence quantum yield)” value in data set [1] is recorded as less than 0.001. For the same compound, the “Turn-on (x-fold)” value in data set [2] is on record as 1600^d x-fold. In data set [3], the λem amounted to 447 nm; the λabs is 326 nm and 390 nm and 563 nm.
For the compound `O=C(CN1C(=S)c2cccc3c(N4CCCC4)ccc(c23)C1=S)NCCOCCOCCCCCCCl` [Dye 5NP-Halo], in data set [6], the “fluorescence upon photoactivation of treated cells” value is “enhanced fluorescence”.
As to `C=C[C@H]1C[N@@]2CC[C@H]1C[C@H]2[C@H](O)c1ccnc2ccc(OC)cc12` [quinine sulfate], in data set [4] (in 0.5 M H2SO4), the “fluorescence quantum yield Φ of reference” value is given as 0.55.
For the compound `O=c1c2ccccc2[nH]c2ccccc12` [ACD, acridone], the “ø (fluorescence quantum yield)” value in data set [1] is listed as 0.64. In data set [3], the λem was 406 nm and 428 nm and 455 nm; the λabs was 361 nm and 379 nm and 398 nm.
Regarding `O=C1NC(=O)c2ccccc21` [OPI, phthalimide], the “ø (fluorescence quantum yield)” value in data set [1] is 0.001. Moreover, the λem in data set [3] is 347 nm.
The like results for `O=c1ccc2ccccc2o1` [Cou, coumarin] were, in that order, 0.71 and 445 nm.
